Source: ChEMBL document CHEMBL6078652, “Discovery of Sporachelins by Genome Mining of a Micromonospora Strain” (J Nat Prod, 2024)
The source made the active and inactive calls. No cut-off for these calls is given here.

Key:
[1] = tested on: LX-2; assay: Antifibrotic activity against TGFbeta-1 induced human LX-2 cells assessed as inhibition of ACTA2 mRNA expression incubated for 24 hrs by qRT-PCR analysis; assay type: functional, cell-based; conditions: dose 1-5 µM
[2] = tested on: Staphylococcus aureus; assay: Antibacterial activity against Staphylococcus aureus ATCC 29213 assessed as bacterial growth inhibition incubated for 16 hrs in presence of Muller-Hinton medium by broth microdilution method; assay type: functional, organism-based
[3] = tested on: LX-2; assay: Antifibrotic activity against TGFbeta-1 induced human LX-2 cells assessed as inhibition of COL1A1 mRNA expression incubated for 24 hrs by qRT-PCR analysis; assay type: functional, cell-based; conditions: dose 1-5 µM
[4] = molecular target: T1, Polyunsaturated fatty acid 5-lipoxygenase (Homo sapiens) (UniProt P09917); assay: Inhibition of human 5-LO at 2 uM incubated for 15 mins in presence of ATP by measuring fluorescence intensity relative to control
T1 sequence (whole entry): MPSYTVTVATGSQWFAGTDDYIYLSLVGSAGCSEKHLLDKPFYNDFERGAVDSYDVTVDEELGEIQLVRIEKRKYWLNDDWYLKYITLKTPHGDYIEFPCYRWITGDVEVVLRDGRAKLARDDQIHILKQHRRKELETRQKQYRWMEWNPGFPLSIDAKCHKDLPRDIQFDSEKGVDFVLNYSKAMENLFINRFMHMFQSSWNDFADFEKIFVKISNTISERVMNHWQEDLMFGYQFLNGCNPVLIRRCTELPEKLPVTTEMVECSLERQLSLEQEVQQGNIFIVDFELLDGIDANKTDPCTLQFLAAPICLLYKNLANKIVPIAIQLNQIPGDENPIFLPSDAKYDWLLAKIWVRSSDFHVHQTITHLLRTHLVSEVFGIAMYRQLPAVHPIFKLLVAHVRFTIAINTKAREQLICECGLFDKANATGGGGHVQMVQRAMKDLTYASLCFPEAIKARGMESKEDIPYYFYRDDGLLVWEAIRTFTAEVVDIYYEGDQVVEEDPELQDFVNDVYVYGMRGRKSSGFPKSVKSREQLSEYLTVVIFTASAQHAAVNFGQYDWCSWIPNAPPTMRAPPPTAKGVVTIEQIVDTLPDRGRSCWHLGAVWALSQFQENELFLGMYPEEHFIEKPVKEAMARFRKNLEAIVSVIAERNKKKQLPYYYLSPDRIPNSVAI

[5] = tested on: Escherichia coli; assay: Antibacterial activity against Escherichia coli ATCC 35218 assessed as bacterial growth inhibition incubated for 16 hrs in presence of Muller-Hinton medium by broth microdilution method; assay type: functional, organism-based
[6] = tested on: Klebsiella pneumoniae; assay: Antibacterial activity against Klebsiella pneumoniae ATCC 10031 assessed as bacterial growth inhibition incubated for 16 hrs in presence of Muller-Hinton medium by broth microdilution method; assay type: functional, organism-based
[7] = tested on: LX-2; assay: Antifibrotic activity against TGFbeta-1 induced human LX-2 cells assessed as inhibition of TGFB1 mRNA expression at 5 uM incubated for 24 hrs by qRT-PCR analysis relative to control; assay type: functional; parameters: scale not given: the % may be the effect or the level left
[8] = tested on: LX-2; assay: Antifibrotic activity against TGFbeta-1 induced human LX-2 cells assessed as inhibition of TGFB1 mRNA expression at 1 uM incubated for 24 hrs by qRT-PCR analysis relative to control; assay type: functional; parameters: scale not given: the % may be the effect or the level left
[9] = tested on: Acinetobacter baumannii; assay: Antibacterial activity against Acinetobacter baumannii 2799 assessed as bacterial growth inhibition incubated for 16 hrs in presence of Muller-Hinton medium by broth microdilution method; assay type: functional, organism-based
[10] = tested on: LX-2; assay: Antifibrotic activity against TGFbeta-1 induced human LX-2 cells assessed as inhibition of ACTA2 mRNA expression at 5 uM incubated for 24 hrs by qRT-PCR analysis relative to control; assay type: functional; parameters: scale not given: the % may be the effect or the level left
[11] = tested on: LX-2; assay: Antifibrotic activity against TGFbeta-1 induced human LX-2 cells assessed as inhibition of TGFB1 mRNA expression incubated for 24 hrs by qRT-PCR analysis; assay type: functional, cell-based; conditions: dose 1-5 µM
[12] = tested on: Enterococcus faecium; assay: Antibacterial activity against Enterococcus faecium 310682 (VRE) assessed as bacterial growth inhibition incubated for 16 hrs in presence of brain heart infusion medium by broth microdilution method; assay type: functional, organism-based
[13] = tested on: NIH3T3; assay: Antifibrotic activity against TGFbeta-1 induced mouse NIH3T3 cells assessed as decrease in Acta2 mRNA expression at 1 uM incubated for 24 hrs by qRT-PCR analysis relative to control; assay type: functional; parameters: scale not given: the % may be the effect or the level left
[14] = tested on: LX-2; assay: Antifibrotic activity against TGFbeta-1 induced human LX-2 cells assessed as inhibition of COL1A1 mRNA expression at 1 uM incubated for 24 hrs by qRT-PCR analysis relative to control; assay type: functional; parameters: scale not given: the % may be the effect or the level left
[15] = tested on: LX-2; assay: Antifibrotic activity against TGFbeta-1 induced human LX-2 cells assessed as inhibition of COL1A1 mRNA expression at 5 uM incubated for 24 hrs by qRT-PCR analysis relative to control; assay type: functional; parameters: scale not given: the % may be the effect or the level left
[16] = tested on: LX-2; assay: Antifibrotic activity against TGFbeta-1 induced human LX-2 cells assessed as inhibition of ACTA2 mRNA expression at 1 uM incubated for 24 hrs by qRT-PCR analysis relative to control; assay type: functional; parameters: scale not given: the % may be the effect or the level left
[17] = tested on: LX-2; assay: Cytotoxicity against human LX-2 cells assessed as reduction in cell viability at 200 uM incubated for 24 hrs by CCK-8 assay; assay type: toxicity, cell-based; conditions: lx-2, 24 h
[18] = tested on: Klebsiella pneumoniae; assay: Antibacterial activity against Klebsiella pneumoniae ATCC 700603 assessed as bacterial growth inhibition incubated for 16 hrs in presence of Muller-Hinton medium by broth microdilution method; assay type: functional, organism-based
[19] = tested on: NIH3T3; assay: Antifibrotic activity against TGFbeta-1 induced mouse NIH3T3 cells assessed as decrease in Acta2 mRNA expression at 5 uM incubated for 24 hrs by qRT-PCR analysis relative to control; assay type: functional; parameters: scale not given: the % may be the effect or the level left
[20] = tested on: Pseudomonas aeruginosa; assay: Antibacterial activity against Pseudomonas aeruginosa ATCC 27853 assessed as bacterial growth inhibition incubated for 16 hrs in presence of Muller-Hinton medium by broth microdilution method; assay type: functional, organism-based
[21] = tested on: NIH3T3; assay: Antifibrotic activity against TGFbeta-1 induced mouse NIH3T3 cells assessed as decrease in COL1A1 mRNA expression at 1 uM incubated for 24 hrs by qRT-PCR analysis relative to control; assay type: functional; parameters: scale not given: the % may be the effect or the level left
[22] = tested on: Enterococcus faecalis; assay: Antibacterial activity against Enterococcus faecalis ATCC 33186 assessed as bacterial growth inhibition incubated for 16 hrs in presence of brain heart infusion medium by broth microdilution method; assay type: functional, organism-based
[23] = tested on: NIH3T3; assay: Antifibrotic activity against TGFbeta-1 induced mouse NIH3T3 cells assessed as decrease in COL1A1 mRNA expression at 5 uM incubated for 24 hrs by qRT-PCR analysis relative to control; assay type: functional; parameters: scale not given: the % may be the effect or the level left
[24] = tested on: Acinetobacter baumannii; assay: Antibacterial activity against Acinetobacter baumannii ATCC 19606 assessed as bacterial growth inhibition incubated for 16 hrs in presence of Muller-Hinton medium by broth microdilution method; assay type: functional, organism-based
[25] = tested on: Pseudomonas aeruginosa; assay: Antibacterial activity against Pseudomonas aeruginosa 2774 assessed as bacterial growth inhibition incubated for 16 hrs in presence of Muller-Hinton medium by broth microdilution method; assay type: functional, organism-based
[26] = tested on: Staphylococcus aureus; assay: Antibacterial activity against Staphylococcus aureus ATCC 33591 assessed as bacterial growth inhibition incubated for 16 hrs in presence of Muller-Hinton medium by broth microdilution method; assay type: functional, organism-based
[27] = tested on: Escherichia coli; assay: Antibacterial activity against Escherichia coli ATCC 25922 assessed as bacterial growth inhibition incubated for 16 hrs in presence of Muller-Hinton medium by broth microdilution method; assay type: functional, organism-based
[28] = tested on: Bacillus subtilis; assay: Antibacterial activity against Bacillus subtilis CPCC 100029 assessed as bacterial growth inhibition incubated for 16 hrs in presence of Muller-Hinton medium by broth microdilution method; assay type: functional, organism-based

Row | SMILES | Activity [2] | inhibition [4] [%] | Activity [5] | Activity [6] | Activity [7] [%] | Activity [8] [%] | Activity [9] | Activity [10] [%] | Activity [12] | Activity [13] [%] | Activity [14] [%] | Activity [15] [%] | Activity [16] [%] | Activity [17] | Activity [18] | Activity [19] [%] | Activity [20] | Activity [21] [%] | Activity [22] | Activity [23] [%] | further results
1 | CC(C)C(=O)OC[C@H](CCCCNC(=O)c1cccc(O)c1O)NC(=O)c1cccc(O)c1O | inactive | 80 | inactive | inactive | 72 | 65 | inactive | 138 | inactive | 75 | 49 | 93 | 92 | Non-toxic | inactive | 122 | inactive | 44 | inactive | 79 | Activity [1]: Dose-dependent-effect; Activity [3]: Dose-dependent-effect; Activity [11]: Dose-dependent-effect; Activity [24]: inactive; Activity [25]: inactive; Activity [26]: inactive; Activity [27]: inactive; Activity [28]: inactive
2 | O=C(Cc1ccc(O)cc1)OC[C@H](CCCCNC(=O)c1cccc(O)c1O)NC(=O)c1cccc(O)c1O | inactive | 77 | inactive | inactive | 81 | 50 | inactive | 136 | inactive | 80 | 29 | 81 | 61 | Non-toxic | inactive | 119 | inactive | 46 | inactive | 68 | Activity [1]: Dose-dependent-effect; Activity [3]: Dose-dependent-effect; Activity [11]: Dose-dependent-effect; Activity [24]: inactive; Activity [25]: inactive; Activity [26]: inactive; Activity [27]: inactive; Activity [28]: inactive
3 | O=C(NCCCC[C@@H](CO)NC(=O)c1cccc(O)c1O)c1cccc(O)c1O | inactive | 67 | inactive | inactive | 74 | 60 | inactive | 136 | inactive | 70 | 39 | 82 | 87 | Non-toxic | inactive | 108 | inactive | 9 | inactive | 78 | Activity [1]: Dose-dependent-effect; Activity [3]: Dose-dependent-effect; Activity [11]: Dose-dependent-effect; Activity [24]: inactive; Activity [25]: inactive; Activity [26]: inactive; Activity [27]: inactive; Activity [28]: inactive
4 | O=C(Cc1ccccc1)OC[C@H](CCCCNC(=O)c1cccc(O)c1O)NC(=O)c1cccnc1 | inactive | 66 | inactive | inactive | 40 | 15 | inactive | 68 | inactive | 20 | -3.5 | 29 | 3.1 | Non-toxic | inactive | 55 | inactive | 7.6 | inactive | 31 | Activity [24]: inactive; Activity [25]: inactive; Activity [26]: inactive; Activity [27]: inactive; Activity [28]: inactive
